Test results: patent EP0104826A2, “Immunomodulator and method of use for immunomodulation” (FUJISAWA PHARMACEUTICAL CO., LTD., priority 1982, dated 1984)

Experiments:
[1] = system: Sarcoma-180 (S-180) cells; assay: Murine transplantable tumor, total tumor cell packed volume in ascites; type: in vivo; conditions: mice
Protocol: Sarcoma-180 (S-180) cells (1 x 10^6 cells) were inoculated to ICR (female, 8 weeks old) mice intraperitoneally and then after, swainsonine was administered intraperitoneally daily for 5 days. The total tumor cell packed volume in ascites was measured 15 days after tumor cell inoculation.

[2] = system: mouse spleen cells; assay: Mitogen (concanavalin A)-induced mouse spleen cell proliferation, 3H-thymidine incorporation; suppression by immunosuppressive factor and restoration; type: cell-based
Protocol: 1) Preparation of immunosuppressive factor from tumor bearing mice serum.
ICR mice were intraperitonealy inoculated with 0.2 ml of S-180 suspension (5x10^6 cells/ml). S-180 bearing mice were bled from heart under light ether anesthesia with sterile synringe between 7 and 9 days after transplantation and serum was collected.
Immunosuppressive factor was partially purified from the S-180 tumor bearing mice serum according to the method described by SE-KYUNG OH and F.L.MOOLTEN (J. Immunol., 127, 2300-2307, 1981). Briefly, the serum (50 ml) was delipidated with 1/10 vol. of 4% phosphotungstic acid and 1/40 vol of 2M magnesium chloride and centrifuged at 6000 x G for 10 min. Excess phosphotungstic acid and magnesium ion were removed by dialysis against phosphate- buffered saline (PBS: 0.15 M sodium chloride and 0.01 M phosphate buffer, pH 7.4). Then, partially delipidated serum was precipitated with ammonium sulfate at 50% saturation. The supernatant was removed by centrifugation at 20000 x G for 30 min. The precipitates were redissolved in a small volume of water and dialysed against PBS overnight at 4°C. The dialysed solution was chromatographed on Sephadex G-200 column in PBS. Each eluate (15 ml) was assayed for suppressive activity.
Immunosuppressive activity was measured by assay for inhibition of the mitogen-induced mouse spleen cell proliferation.
3) Suppression of mitogen-induced mouse spleen cell proliferation and its restoration by swainsonine in vitro.
Mitogenic activities for mouse spleen cells in vitro : • a) Mice. Female BALB/C strain (8 weeks of age) was used. • b) Tissue culture medium : The tissue culture medium employed was a complete medium designated Roswell Park Memorial Institute(RPMI)-1640. All media employed contained 100 units/ml of penicillin G and 100 µg/ml of streptomycin sulfate and 5% fetal calf serum. • c) Spleen cell preparation : Spleens were removed under sterile conditions and washed with Hanks solution and then teased in the tissue culture medium. The cells were suspended in the tissue culture medium to contain 5 x 10^5 cells/ml. • d) Culture conditions : Into each hole of Microtiteration plate (Falcon No. 3040) were poured 0.1 ml of the above cells suspension and 0.1 ml of the prescribed concentrate of the compound and/or immunosuppressive factor described above. […] The culture was incubated in triplicate at 37°C in a humidified atmosphere (95% air, 5% C02) for 48 hours. • e) Assay for mitogen induced mouse spleen cells proliferation. The mitogen induced mouse spleen cells proliferation was assayed for tritiated thymidine (^3H-thymidine) incorporation. In all tests, 20 pl of 10 micro curie (uCi)/ml of ^3H-thymidine was added to each hole for the 48 hours of culture. After further 24 hours incubation, the culture was terminated.
The resultant cells were filtered with filter paper, Whatman GF83 and washed successively with saline and with 5% trichloroacetic acid. The filter paper was dried and placed in a scintillator(toluene 1 liter containing 0.1 g of p-bis(5-phenyl oxazole)-benzene and 4 g of 2,5-diphenyloxazole), and ^3H-thymidine incorporated into DNA was measured.

[3] = system: antibody forming capacities; assay: Antibody forming capacity (PFC-SRBC) in mice immunosuppressed with mitomycin C; type: in vivo
Protocol: Female BDF1 (8 weeks in age) mice were injected intraperitoneally with mitomycin C (1 mg/kg) from four days before immuization with 5 x 10^8 SRBC, every day for three days. Samples also were administered to mice intraperitoneally from four days before immunization, every day for five days.
At day 9, mice were sacrificed and the number of direct plaque forming cells per spleen was measured by using Cunningham modification method.

[4] = system: antibody forming capacities against SRBC; assay: Antibody forming capacity (direct plaque-forming cells against SRBC) in mice injected with immunosuppressive factor; type: in vivo
Protocol: Splenic lymphocytes producing antibody against sheep blood red cells (SRBC) were quantitated using Cunningham modification (Cunningham, A.J., Nature, 207, 1106-1107, 1965) of the Jerne plaque assay.
[…] Samples were administered to mice intraperitoneally four times before immunization. Mice were sacrificed 4 days after the injection of SRBC, and the number of direct plaque-forming cells per spleen was determined.

[5] = system: thymus; assay: Dexamethasone-induced thymus atrophy in mice; type: in vivo; conditions: for Thymus weight: Dexamethasone treatment Yes, n=5
Protocol: Five week-old ddY mice(male) were used. Samples were given subcutaneously twice per day from day 0 to day 2 of the experiment. Five hours after first medication on day 0, mice were supplied with drinking water containing 1 ug/ml of dexamethasone.
At day 2, the weight of thymus of the treated mice was compared with that of the nontreated controls.

[6] = system: antibody forming capacities; assay: Antibody forming capacity (PFC-SRBC) in Sarcoma 180 tumor bearing mice; type: in vivo
Protocol: Female ICR(8 weeks in age) mice were intraperitoneally inoculated with 0.2 ml of Sarcoma 180 suspension (5 x 10^6 cells/ml)at day 0. Samples were administered to mice intraperitoneally from 7 days before immunization with 5 x 10^8 SRBC, every day for five days.
The number of direct plaque forming cells per spleen was measured five days after immunization.

[7] = swainsonine alone added to mouse spleen cell culture

O[C@H]1[C@H]2[C@H](O)CCCN2C[C@H]1O [Swainsonine]
growth of transplantable tumors [1]: inhibits growth
Con A induced stimulation of ^3H-thymidine incorporation into mouse spleen cell, increase relative to Con A only ([2]; Con A and swainsonine added simultaneously): 10 times
^3H-thymidine uptake (cpm) ([2]; Concanavalin A 0.3 µg/well + swainsonine 0.0002 µg/well): 67,017 cpm
^3H-thymidine uptake (cpm) ([2]; Concanavalin A 0.3 µg/well + swainsonine 0.002 µg/well): 105,850 cpm
^3H-thymidine uptake (cpm) ([2]; Concanavalin A 0.3 µg/well + swainsonine 0.02 µg/well): 108,748 cpm
^3H-thymidine uptake (cpm) ([2]; Concanavalin A 0.3 µg/well + swainsonine 0.2 µg/well): 118,071 cpm
^3H-thymidine uptake (cpm) ([2]; Concanavalin A 0.3 µg/well + swainsonine 2 µg/well): 100,480 cpm
^3H-thymidine uptake (cpm) ([2]; Concanavalin A 0.3 µg/well + swainsonine 20 µg/well): 68,778 cpm
^3H-thymidine uptake (cpm) ([2]; Concanavalin A 1 µg/well + Immunosuppressive factor 6 µl/well + swainsonine 0.002 µg/well): 69,313 cpm
^3H-thymidine uptake (cpm) ([2]; Concanavalin A 1 µg/well + Immunosuppressive factor 6 µl/well + swainsonine 0.02 µg/well): 66,858 cpm
^3H-thymidine uptake (cpm) ([2]; Concanavalin A 1 µg/well + Immunosuppressive factor 6 µl/well + swainsonine 0.2 µg/well): 70,890 cpm
^3H-thymidine uptake (cpm) ([2]; Concanavalin A 1 µg/well + Immunosuppressive factor 6 µl/well + swainsonine 2 µg/well): 53,500 cpm
^3H-thymidine uptake (cpm) ([2]; Concanavalin A 1 µg/well + Immunosuppressive factor 6 µl/well + swainsonine 20 µg/well): 37,746 cpm
^3H-thymidine uptake (cpm) ([2]; Swainsonine alone, 0.0002 µg/well): 1,311 cpm
^3H-thymidine uptake (cpm) ([2]; Swainsonine alone, 0.002 µg/well): 1,598 cpm
^3H-thymidine uptake (cpm) ([2]; Swainsonine alone, 0.02 µg/well): 1,712 cpm
^3H-thymidine uptake (cpm) ([2]; Swainsonine alone, 0.2 µg/well): 1,734 cpm
^3H-thymidine uptake (cpm) ([2]; Swainsonine alone, 2 µg/well): 1,726 cpm
^3H-thymidine uptake (cpm) ([2]; Swainsonine alone, 20 µg/well): 1,260 cpm
suppression of mitogenic response by immunosuppressive factor ([2]; swainsonine added to culture containing immunosuppressive factor): prevented the suppression
mitogenic activity of mouse spleen cell [2, 7]: did not affected
spleen cell viability [2, 7]: did not affected
PFC-SRBC/spleen (average number of 5 mice/group) ([3]; BDF1 mice, Swainsonine 100 mg/kg i.p. alone): 21.66 x 10^4 PFC-SRBC/spleen
PFC-SRBC/spleen (average number of 5 mice/group) ([3]; Mitomycin C (1.0 mg/kg) + Swainsonine 3.7 mg/kg i.p.): 21.31 x 10^4 PFC-SRBC/spleen
PFC-SRBC/spleen (average number of 5 mice/group) ([3]; Mitomycin C (1.0 mg/kg) + Swainsonine 11 mg/kg i.p.): 20.90 x 10^4 PFC-SRBC/spleen
PFC-SRBC/spleen (average number of 5 mice/group) ([3]; Mitomycin C (1.0 mg/kg) + Swainsonine 33 mg/kg i.p.): 20.90 x 10^4 PFC-SRBC/spleen
PFC-SRBC/spleen (average number of 5 mice/group) ([3]; Mitomycin C (1.0 mg/kg) + Swainsonine 100 mg/kg i.p.): 21.79 x 10^4 PFC-SRBC/spleen
capacities to produce antibody against SRBC ([3]; mice injected mitomycin C): restored the capacities
PFC-SRBC/spleen (average number of 5 mice/group) ([4]; BDF1 mice, Swainsonine 100 mg/kg/day intraperitoneally, alone (normal mice)): 16.49 x 10^4 PFC-SRBC/spleen
PFC-SRBC/spleen (average number of 5 mice/group) ([4]; Immunosuppressive factor (0.3 ml/mouse/day) + Swainsonine 3.7 mg/kg i.p.): 20.77 x 10^4 PFC-SRBC/spleen
PFC-SRBC/spleen (average number of 5 mice/group) ([4]; Immunosuppressive factor (0.3 ml/mouse/day) + Swainsonine 11 mg/kg i.p.): 20.08 x 10^4 PFC-SRBC/spleen
PFC-SRBC/spleen (average number of 5 mice/group) ([4]; Immunosuppressive factor (0.3 ml/mouse/day) + Swainsonine 33 mg/kg i.p.): 20.84 x 10^4 PFC-SRBC/spleen
PFC-SRBC/spleen (average number of 5 mice/group) ([4]; Immunosuppressive factor (0.3 ml/mouse/day) + Swainsonine 100 mg/kg i.p.): 17.39 x 10^4 PFC-SRBC/spleen
capacities to produce antibody against SRBC ([4]; mice injected immunosuppressive factor, intraperitoneal administration): restored the capacities
capacities to produce antibody against SRBC ([4]; normal mice): did not enhance
Thymus weight ([5]; sample 5 mg/kg subcutaneously twice per day): 73.0 mg/mouse
Thymus weight ([5]; sample 15 mg/kg subcutaneously twice per day): 78.8 mg/mouse
Thymus weight ([5]; sample 50 mg/kg subcutaneously twice per day): 72.4 mg/mouse
atrophy of thymus induced by dexamethasone ([5]; mice): prevents
PFC-SRBC/spleen (average number of 5 mice/group) ([6]; ICR mice without tumor, Swainsonine 100 mg/kg i.p.): 118.7 x 10^4 PFC-SRBC/spleen
PFC-SRBC/spleen (average number of 5 mice/group) ([6]; Tumor bearer (Sarcoma 180, ICR mice) + Swainsonine 100 mg/kg i.p., every day for five days): 126.7 x 10^4 PFC-SRBC/spleen
PFC-SRBC/spleen (average number of 5 mice/group) ([6]; Tumor bearer + Swainsonine 3.7 mg/kg i.p.): 61.6 x 10^4 PFC-SRBC/spleen
PFC-SRBC/spleen (average number of 5 mice/group) ([6]; Tumor bearer + Swainsonine 11 mg/kg i.p.): 71.6 x 10^4 PFC-SRBC/spleen
PFC-SRBC/spleen (average number of 5 mice/group) ([6]; Tumor bearer + Swainsonine 33 mg/kg i.p.): 123.5 x 10^4 PFC-SRBC/spleen
capacities to produce antibody against SRBC ([6]; tumor bearing mice): restored the capacities
